Experimental data published in paper PMC5844530, “Fosmetpantotenate (RE-024), a phosphopantothenate replacement therapy for pantothenate kinase-associated neurodegeneration: Mechanism of action and efficacy in nonclinical models” (PLoS ONE, 2018).
“And” between values parts separate entries of the source, which are not always exact repeats. Equal entries are not always repeated.

Assay: Pharmacokinetics in whole blood, CD-1 mice
Conditions: for % Parent AUCAll: CD1 mouse, metabolite AUCall/Parent AUCall x 100; for Compound 1 Whole Blood Conc.: CD-1 mice, individual animals

COC(=O)CCNC(=O)[C@@H]1OP(=O)(N[C@@H](C)C(=O)OC)OCC1(C)C (some centres unmarked) [Compound 1]
% Parent AUCAll (100 mg/kg PO): 129% | % Parent AUCAll (300 mg/kg PO): 307% | % Parent AUCAll (700 mg/kg PO): 257% | Compound 1 Whole Blood Conc. (100 mg/kg RE-024-02 by PO, 0.033 hr, LLOQ 0.6 ng/mL, 100 mg/kg): 4.6 ng/mL and 4 ng/mL and 74.4 ng/mL and 3.2 ng/mL | Compound 1 Whole Blood Conc. (100 mg/kg RE-024-02 by PO, 0.033 hr, LLOQ 1.6 nM, 100 mg/kg): 12.2 nM and 10.6 nM and 195.6 nM and 8.4 nM | Compound 1 Whole Blood Conc. (100 mg/kg RE-024-02 by PO, 0.083 hr, LLOQ 0.6 ng/mL, 100 mg/kg): BQL and 1 ng/mL | Compound 1 Whole Blood Conc. (100 mg/kg RE-024-02 by PO, 0.083 hr, LLOQ 1.6 nM, 100 mg/kg): BQL and 2.7 nM | Compound 1 Whole Blood Conc. (100 mg/kg RE-024-02 by PO, 0.167 hr, LLOQ 0.6 ng/mL, 100 mg/kg): 4.3 ng/mL and BQL and 10.8 ng/mL | Compound 1 Whole Blood Conc. (100 mg/kg RE-024-02 by PO, 0.167 hr, LLOQ 1.6 nM, 100 mg/kg): 11.4 nM and BQL and 28.4 nM | Compound 1 Whole Blood Conc. (100 mg/kg RE-024-02 by PO, 0.333 hr, LLOQ 0.6 ng/mL, 100 mg/kg): BQL | Compound 1 Whole Blood Conc. (100 mg/kg RE-024-02 by PO, 0.333 hr, LLOQ 1.6 nM, 100 mg/kg): BQL | Compound 1 Whole Blood Conc. (100 mg/kg RE-024-02 by PO, 0.5 hr, LLOQ 0.6 ng/mL): BQL | Compound 1 Whole Blood Conc. (100 mg/kg RE-024-02 by PO, 0.5 hr, LLOQ 1.6 nM): BQL | Compound 1 Whole Blood Conc. (100 mg/kg RE-024-02 by PO, 1 hr, LLOQ 0.6 ng/mL): BQL | Compound 1 Whole Blood Conc. (100 mg/kg RE-024-02 by PO, 1 hr, LLOQ 1.6 nM): BQL | Compound 1 Whole Blood Conc. (100 mg/kg RE-024-02 by PO, 2 hr, LLOQ 0.6 ng/mL): BQL | Compound 1 Whole Blood Conc. (100 mg/kg RE-024-02 by PO, 2 hr, LLOQ 1.6 nM): BQL | Compound 1 Whole Blood Conc. (100 mg/kg RE-024-02 by PO, 4 hr, LLOQ 0.6 ng/mL): BQL | Compound 1 Whole Blood Conc. (100 mg/kg RE-024-02 by PO, 4 hr, LLOQ 1.6 nM): BQL | Compound 1 Whole Blood Conc. (100 mg/kg RE-024-02 by PO, 8 hr, LLOQ 0.6 ng/mL): BQL | Compound 1 Whole Blood Conc. (100 mg/kg RE-024-02 by PO, 8 hr, LLOQ 1.6 nM): BQL | Compound 1 Whole Blood Conc. (300 mg/kg RE-024-02 by PO, 0.033 hr, LLOQ 0.6 ng/mL, 300 mg/kg): 8.7 ng/mL and 70.8 ng/mL and 52.7 ng/mL and 7.2 ng/mL | Compound 1 Whole Blood Conc. (300 mg/kg RE-024-02 by PO, 0.033 hr, LLOQ 1.6 nM, 300 mg/kg): 22.9 nM and 186.2 nM and 138.7 nM and 18.9 nM | Compound 1 Whole Blood Conc. (300 mg/kg RE-024-02 by PO, 0.083 hr, LLOQ 0.6 ng/mL, 300 mg/kg): 1.6 ng/mL and BQL and 16.9 ng/mL | Compound 1 Whole Blood Conc. (300 mg/kg RE-024-02 by PO, 0.083 hr, LLOQ 1.6 nM, 300 mg/kg): 4.2 nM and BQL and 44.3 nM | Compound 1 Whole Blood Conc. (300 mg/kg RE-024-02 by PO, 0.167 hr, LLOQ 0.6 ng/mL, 300 mg/kg): 21.9 ng/mL and 24.1 ng/mL and 53.3 ng/mL and 17.7 ng/mL | Compound 1 Whole Blood Conc. (300 mg/kg RE-024-02 by PO, 0.167 hr, LLOQ 1.6 nM, 300 mg/kg): 57.6 nM and 63.3 nM and 140.1 nM and 46.5 nM | Compound 1 Whole Blood Conc. (300 mg/kg RE-024-02 by PO, 0.333 hr, LLOQ 0.6 ng/mL, 300 mg/kg): 2.4 ng/mL and 4.3 ng/mL and 3.8 ng/mL and 1.5 ng/mL | Compound 1 Whole Blood Conc. (300 mg/kg RE-024-02 by PO, 0.333 hr, LLOQ 1.6 nM, 300 mg/kg): 6.2 nM and 11.3 nM and 10 nM and 3.9 nM | Compound 1 Whole Blood Conc. (300 mg/kg RE-024-02 by PO, 0.5 hr, LLOQ 0.6 ng/mL, 300 mg/kg): 4.4 ng/mL and 4.5 ng/mL and 2.8 ng/mL | Compound 1 Whole Blood Conc. (300 mg/kg RE-024-02 by PO, 0.5 hr, LLOQ 1.6 nM, 300 mg/kg): 11.5 nM and 11.9 nM and 7.4 nM | Compound 1 Whole Blood Conc. (300 mg/kg RE-024-02 by PO, 1 hr, LLOQ 0.6 ng/mL, 300 mg/kg): BQL | Compound 1 Whole Blood Conc. (300 mg/kg RE-024-02 by PO, 1 hr, LLOQ 1.6 nM, 300 mg/kg): BQL | Compound 1 Whole Blood Conc. (300 mg/kg RE-024-02 by PO, 2 hr, LLOQ 0.6 ng/mL): BQL | Compound 1 Whole Blood Conc. (300 mg/kg RE-024-02 by PO, 2 hr, LLOQ 1.6 nM): BQL | Compound 1 Whole Blood Conc. (300 mg/kg RE-024-02 by PO, 4 hr, LLOQ 0.6 ng/mL): BQL | Compound 1 Whole Blood Conc. (300 mg/kg RE-024-02 by PO, 4 hr, LLOQ 1.6 nM): BQL | Compound 1 Whole Blood Conc. (300 mg/kg RE-024-02 by PO, 8 hr, LLOQ 0.6 ng/mL): BQL | Compound 1 Whole Blood Conc. (300 mg/kg RE-024-02 by PO, 8 hr, LLOQ 1.6 nM): BQL | Compound 1 Whole Blood Conc. (700 mg/kg RE-024-02 by PO, 0.033 hr, LLOQ 0.6 ng/mL, 700 mg/kg): 22.6 ng/mL and 66.6 ng/mL and 198 ng/mL and 119.4 ng/mL | Compound 1 Whole Blood Conc. (700 mg/kg RE-024-02 by PO, 0.033 hr, LLOQ 1.6 nM, 700 mg/kg): 59.3 nM and 175.1 nM and 520.6 nM and 313.9 nM | Compound 1 Whole Blood Conc. (700 mg/kg RE-024-02 by PO, 0.083 hr, LLOQ 0.6 ng/mL, 700 mg/kg): 165 ng/mL and 2.2 ng/mL and 624 ng/mL and 75 ng/mL | Compound 1 Whole Blood Conc. (700 mg/kg RE-024-02 by PO, 0.083 hr, LLOQ 1.6 nM, 700 mg/kg): 433.8 nM and 5.9 nM and 1640.7 nM and 197.2 nM | Compound 1 Whole Blood Conc. (700 mg/kg RE-024-02 by PO, 0.167 hr, LLOQ 0.6 ng/mL, 700 mg/kg): 636 ng/mL and 235.8 ng/mL and 165 ng/mL and 720 ng/mL | Compound 1 Whole Blood Conc. (700 mg/kg RE-024-02 by PO, 0.167 hr, LLOQ 1.6 nM, 700 mg/kg): 1672.2 nM and 620 nM and 433.8 nM and 1893.1 nM | Compound 1 Whole Blood Conc. (700 mg/kg RE-024-02 by PO, 0.333 hr, LLOQ 0.6 ng/mL, 700 mg/kg): 63.6 ng/mL | Compound 1 Whole Blood Conc. (700 mg/kg RE-024-02 by PO, 0.333 hr, LLOQ 1.6 nM, 700 mg/kg): 167.2 nM | Compound 1 Whole Blood Conc. (700 mg/kg RE-024-02 by PO, 0.5 hr, LLOQ 0.6 ng/mL, 700 mg/kg): 12 ng/mL and 41.6 ng/mL and 9.4 ng/mL and 22.9 ng/mL | Compound 1 Whole Blood Conc. (700 mg/kg RE-024-02 by PO, 0.5 hr, LLOQ 1.6 nM, 700 mg/kg): 31.6 nM and 109.3 nM and 24.8 nM and 60.1 nM | Compound 1 Whole Blood Conc. (700 mg/kg RE-024-02 by PO, 1 hr, LLOQ 0.6 ng/mL, 700 mg/kg): 48.8 ng/mL and 16 ng/mL and 6.1 ng/mL and 8.8 ng/mL | Compound 1 Whole Blood Conc. (700 mg/kg RE-024-02 by PO, 1 hr, LLOQ 1.6 nM, 700 mg/kg): 128.4 nM and 42.1 nM and 15.9 nM and 23.2 nM | Compound 1 Whole Blood Conc. (700 mg/kg RE-024-02 by PO, 2 hr, LLOQ 0.6 ng/mL, 700 mg/kg): 5.5 ng/mL and 4 ng/mL and 5.6 ng/mL and 10.2 ng/mL | Compound 1 Whole Blood Conc. (700 mg/kg RE-024-02 by PO, 2 hr, LLOQ 1.6 nM, 700 mg/kg): 14.6 nM and 10.4 nM and 14.8 nM and 26.8 nM
